Assay results: patent US20240417412A1, “HETEROCYCLIC COMPOUNDS AND METHODS OF USE” (AMGEN INC., priority 2022, published 2024)
Where two headings read alike, the source gives them in different places.

Assays:
KRAS G12D [1] = target: KRAS G12D (Homo sapiens, UniProt P01116, C118A/G12D); assay: KRAS G12D Coupled Nucleotide Exchange Assay; type: biochemical; conditions: GDP-bound KRAS G12D/C118A, 2 hours pre-incubation, SOS-mediated nucleotide exchange, AlphaScreen
Method: The assay plates were then read on a PerkinElmer EnVision Multilabel Reader, using AlphaScreen® technology, and data were analyzed using a 4-parameter logistic model to calculate IC50 values.

p-ERK (AsPC-1 cells) = assay: Phospho-ERK1/2 MSD Assay; type: cell-based
Method: Sixteen hours prior to compound treatment, AsPC-1 cells were seeded in 96-well cell culture plates at a density of 25,000 cells/well and incubated at 37° C., 5% CO2. A compound dose-response titration was diluted in growth media, added to appropriate wells of a cell culture plate, and then incubated at 37° C., 5% CO2 for 2 hours. […] Phosphorylation of ERK1/2 in compound-treated lysates was assayed using Phospho-ERK1/2 Whole Cell Lysate kits (Meso Scale Discovery K151DWD) according to the manufacturer's protocol. Assay plates were read on a Meso Scale Discovery Sector Imager 6000, and data were analyzed using a 4-parameter logistic model to calculate IC50 values.

KRAS G12D [2] = target: KRAS G12D (Homo sapiens, UniProt P01116, G12D); assay: KRAS G12D TR-FRET Assay; conditions: His-tagged KRAS G12D, biotinylated KRPep-2d, read-out: KRAS G12D Binding IC50
Method: The plate was incubated for 30 minutes at room temperature. Biotinylated KRPep-2d substrate (Amgen) was diluted to 20 nM in Assay Buffer and 2 uL was added to all wells and incubated for 1 hour at room temperature. Detection Reagent (0.4 nM LANCE Eu-W1024 Anti-6×His (Perkin Elmer AD0401), 5 nM streptavidin-d2 (Cisbio 610SADLA)) was prepared in Assay Buffer, then 4 μL was added to the plate and incubated for 1 hour at room temperature.

[3] = Homo sapiens, ASPC1, 2 h, read-out: 2 h p-ERK (AsPC-1 cells), IC50 (μM), AsPC-1 cells, 2 hours compound treatment
[4] = read-out: 2 h p-ERK (AsPC-1 cells), IC50, AsPC-1 cells, 2 hours compound treatment

Sequence of KRAS G12D (Homo sapiens, UniProt P01116, C118A/G12D) (P01116 1-169 isoform P01116-2 G12D/C118A): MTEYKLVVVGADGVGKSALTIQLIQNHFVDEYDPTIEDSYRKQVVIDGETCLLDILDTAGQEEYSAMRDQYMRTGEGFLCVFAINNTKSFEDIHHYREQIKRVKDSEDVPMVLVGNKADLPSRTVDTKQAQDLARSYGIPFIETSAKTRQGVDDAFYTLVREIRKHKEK
Sequence of KRAS G12D (Homo sapiens, UniProt P01116, G12D) (P01116 1-188 isoform P01116-2 G12D): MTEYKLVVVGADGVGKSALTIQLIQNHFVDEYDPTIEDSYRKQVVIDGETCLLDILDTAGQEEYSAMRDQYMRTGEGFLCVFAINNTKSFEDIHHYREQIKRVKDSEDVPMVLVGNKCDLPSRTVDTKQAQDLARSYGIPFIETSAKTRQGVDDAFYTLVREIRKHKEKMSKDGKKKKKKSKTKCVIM

Row | IC50 (KRAS G12D [1]) [nM] | IC50 (p-ERK (AsPC-1 cells); [3]) [µM] | IC50 (KRAS G12D [2]) [nM] | IC50 (p-ERK (AsPC-1 cells); [4]) [µM] | Structure (SMILES)
1 | 2 | 0.034 | 1 | – | CCc1c(F)ccc2cc(O)cc(-c3ncc4c(N5CC(O)CC6(CC6)C5)nc(OC[C@@]56CCCN5C[C@H](F)C6)nc4c3F)c12 (single isomer, unassigned) [Example 3]
2 | 3 | – | 2 | – | CCc1c(F)ccc2cc(O)cc(-c3ncc4c(N5CC(O)CC6(CC6)C5)nc(OC[C@@]56CCCN5C[C@H](F)C6)nc4c3F)c12 (single isomer, unassigned) [Example 4]
3 | 8 | – | 3 | – | CCc1c(F)ccc2cc(O)cc(-c3ncc4c(N5CCCC6(CNC(=O)C6)C5)nc(OC[C@@]56CCCN5C[C@H](F)C6)nc4c3F)c12 (single isomer, unassigned) [Example 7]
4 | 4 | 0.252 | 2 | – | CCc1c(F)ccc2cc(O)cc(-c3ncc4c(N5CCCC6(CNC(=O)C6)C5)nc(OC[C@@]56CCCN5C[C@H](F)C6)nc4c3F)c12 (single isomer, unassigned) [Example 8]
5 | 5 | – | 2 | 1.99 | CCc1c(F)ccc2cc(O)cc(-c3ncc4c(N5CCCC6(CC(=O)N6)C5)nc(OC[C@@]56CCCN5C[C@H](F)C6)nc4c3F)c12 (single isomer, unassigned) [Example 9]
6 | 2 | – | 1 | 0.044 | CCc1c(F)ccc2cc(O)cc(-c3ncc4c(N5CCCC6(CC(=O)N6)C5)nc(OC[C@@]56CCCN5C[C@H](F)C6)nc4c3F)c12 (single isomer, unassigned) [Example 10]
7 | 2 | 0.119 | 2 | – | Oc1cc(-c2ncc3c(N4CCCC5(CC(O)C5)C4)nc(OC[C@@]45CCCN4C[C@H](F)C5)nc3c2F)c2c(F)c(F)ccc2c1 (single isomer, unassigned) [Example 11]
8 | 2 | – | 2 | 0.121 | Oc1cc(-c2ncc3c(N4CCCC5(CC(O)C5)C4)nc(OC[C@@]45CCCN4C[C@H](F)C5)nc3c2F)c2c(F)c(F)ccc2c1 (single isomer, unassigned) [Example 12]
9 | 1 | 0.022 | 2 | – | CCc1cccc2cc(O)cc(-c3ncc4c(N5CCCC6(CC(O)C6)C5)nc(OC[C@@]56CCCN5C[C@H](F)C6)nc4c3F)c12 (single isomer, unassigned) [Example 13]
10 | – | – | – | 0.003 | CCc1c(F)ccc2cc(O)cc(-c3ncc4c(N5CCCC6(CCO6)C5)nc(OC[C@@]56CCCN5C[C@H](F)C6)nc4c3F)c12 (single isomer, unassigned) [Example 21]
11 | – | – | – | 0.252 | CCc1c(F)ccc2cc(O)cc(-c3ncc4c(N5CCCC6(CCO6)C5)nc(OC[C@@]56CCCN5C[C@H](F)C6)nc4c3F)c12 (single isomer, unassigned) [Example 22]
12 | 65 | – | 59 | – | CCc1c(F)ccc2cc(O)cc(-c3ncc4c(N5CCCC6(CNC6=O)C5)nc(OC[C@@]56CCCN5C[C@H](F)C6)nc4c3F)c12 (single isomer, unassigned) [Example 46]
13 | 54 | – | 36 | – | CCc1c(F)ccc2cc(O)cc(-c3ncc4c(N5CCCC6(CCC6O)C5)nc(OC[C@@]56CCCN5C[C@H](F)C6)nc4c3F)c12 (single isomer, unassigned) [Example 48]
14 | – | – | – | 0.008 | CCc1c(F)ccc2cc(O)cc(-c3ncc4c(N5CCCC6(CC(O)C6)C5)nc(OC[C@@]56CCCN5C[C@H](F)C6)nc4c3F)c12 (single isomer, unassigned) [Example 54]
15 | – | – | – | 0.078 | CCc1c(F)ccc2cc(O)cc(-c3ncc4c(N5CCCC6(CC(O)C6)C5)nc(OC[C@@]56CCCN5C[C@H](F)C6)nc4c3F)c12 (single isomer, unassigned) [Example 55]
16 | 42 | – | 68 | – | CCc1c(F)ccc2cc(O)cc(-c3ncc4c(N5CCCC6(CCO6)C5)nc(OC[C@@]56CCCN5C[C@H](F)C6)nc4c3C)c12 (single isomer, unassigned) [Example 62]
17 | 129 | – | 305 | – | CCc1c(F)ccc2cccc(-c3ncc4c(N5CCCC6(CNC(=O)O6)C5)nc(OC[C@@]56CCCN5C[C@H](F)C6)nc4c3F)c12 (single isomer, unassigned) [Example 64]
18 | 42 | – | 74 | – | CCc1c(F)ccc2cc(O)cc(-c3ncc4c(N5CCCC6(CCC(=O)O6)C5)nc(OC[C@@]56CCCN5C[C@H](F)C6)nc4c3F)c12 (single isomer, unassigned) [Example 65]
19 | 50 | – | 56 | – | CCc1c(F)ccc2cc(O)cc(-c3ncc4c(N5CCOCC6(COC6)C5)nc(OCC56CCCN5C[C@H](F)C6)nc4c3F)c12 (stereo in doubt) [Example 50, 5-Ethyl-6-fluoro-4-(8-fluoro-2-(((2R,7aS)-2-fluorotetrahydro-1H-pyrrolizin-7a(5H)-yl)methoxy)-4-(2,6-dioxa-9-azaspiro[3.6]decan-9-yl)pyrido[4,3-d]pyrimidin-7-yl)naphthalen-2-ol]
20 | 13 | – | 17 | – | CCc1c(F)ccc2cc(O)cc(-c3ncc4c(N5CCC6(CCCS6(=O)=O)C5)nc(OCC56CCCN5C[C@H](F)C6)nc4c3F)c12 (stereo in doubt) [Example 51, 7-(7-(8-Ethyl-7-fluoro-3-hydroxynaphthalen-1-yl)-8-fluoro-2-(((2R,7aS)-2-fluorotetrahydro-1H-pyrrolizin-7a(5H)-yl)methoxy)pyrido[4,3-d]pyrimidin-4-yl)-1-thia-7-azaspiro[4.4]nonane 1,1-dioxide]
21 | 17 | – | 40 | – | CCc1c(F)ccc2cc(O)cc(-c3ncc4c(N5CCCC6(CCN6)C5)nc(OC[C@@]56CCCN5C[C@H](F)C6)nc4c3F)c12 (stereo partly drawn) [Example 5, 5-Ethyl-6-fluoro-4-(8-fluoro-2-(((2R,7aS)-2-fluorotetrahydro-1H-pyrrolizin-7a(5H)-yl)methoxy)-4-(1,6-diazaspiro[3.5]nonan-6-yl)pyrido[4,3-d]pyrimidin-7-yl)naphthalen-2-ol]
22 | 3 | – | 2 | – | CCc1c(F)ccc2cc(O)cc(-c3ncc4c(N5CCCC6(COC6)C5)nc(OC[C@@]56CCCN5C[C@H](F)C6)nc4c3F)c12 [Example 20, 5-Ethyl-6-fluoro-4-(8-fluoro-2-(((2R,7aS)-2-fluorotetrahydro-1H-pyrrolizin-7a(5H)-yl)methoxy)-4-(2-oxa-6-azaspiro[3.5]nonan-6-yl)pyrido[4,3-d]pyrimidin-7-yl)naphthalen-2-ol]
23 | 28 | – | 27 | – | CCc1c(F)ccc2cc(O)cc(-c3ncc4c(N5CCOC6(CCC6)C5)nc(OC[C@@]56CCCN5C[C@H](F)C6)nc4c3F)c12 [Example 31, 5-Ethyl-6-fluoro-4-(8-fluoro-2-(((2R,7aS)-2-fluorotetrahydro-1H-pyrrolizin-7a(5H)-yl)methoxy)-4-(5-oxa-8-azaspiro[3.5]nonan-8-yl)pyrido[4,3-d]pyrimidin-7-yl)naphthalen-2-ol]
24 | 5 | – | 4 | – | CCc1c(F)ccc2cccc(-c3ncc4c(N5CCCC6(CNC6=O)C5)nc(OC[C@@]56CCCN5C[C@H](F)C6)nc4c3F)c12 (stereo partly drawn) [Example 32, 6-(7-(8-Ethyl-7-fluoronaphthalen-1-yl)-8-fluoro-2-(((2R,7aS)-2-fluorotetrahydro-1H-pyrrolizin-7a(5H)-yl)methoxy)pyrido[4,3-d]pyrimidin-4-yl)-2,6-diazaspiro[3.5]nonan-1-one]
25 | 33 | – | 31 | – | CCc1c(F)ccc2cc(O)cc(-c3ncc4c(N5CCCC6(CNC6)C5)nc(OC[C@@]56CCCN5C[C@H](F)C6)nc4c3F)c12 [Example 38, 5-Ethyl-6-fluoro-4-(8-fluoro-2-(((2R,7aS)-2-fluorotetrahydro-1H-pyrrolizin-7a(5H)-yl)methoxy)-4-(2,6-diazaspiro[3.5]nonan-6-yl)pyrido[4,3-d]pyrimidin-7-yl)naphthalen-2-ol]
26 | 8 | – | 12 | – | CCc1c(F)ccc2cc(O)cc(-c3ncc4c(N5CCCC6(CCS6(=O)=O)C5)nc(OC[C@@]56CCCN5C[C@H](F)C6)nc4c3F)c12 (some centres unmarked) [Example 43]
27 | 24 | – | 51 | – | CCc1c(F)ccc2cc(O)cc(-c3ncc4c(N5CCCC6(CCNC6=O)C5)nc(OC[C@@]56CCCN5C[C@H](F)C6)nc4c3F)c12 (stereo partly drawn) [Example 47, 7-(7-(8-Ethyl-7-fluoro-3-hydroxynaphthalen-1-yl)-8-fluoro-2-(((2R,7aS)-2-fluorotetrahydro-1H-pyrrolizin-7a(5H)-yl)methoxy)pyrido[4,3-d]pyrimidin-4-yl)-2,7-diazaspir[4.5]decan-1-one]
28 | 6 | – | 6 | – | CCc1c(F)ccc2cc(O)cc(-c3ncc4c(N5CCCC6(C5)CN(S(C)(=O)=O)C6)nc(OC[C@@]56CCCN5C[C@H](F)C6)nc4c3F)c12 [Example 52, 5-Ethyl-6-fluoro-4-(8-fluoro-2-(((2R,7aS)-2-fluorotetrahydro-1H-pyrrolizin-7a(5H)-yl)methoxy)-4-(2-(methylsulfonyl)-2,6-diazaspiro[3.5]nonan-6-yl)pyrido[4,3-d]pyrimidin-7-yl)naphthalen-2-ol]
